Results published in ChEMBL document CHEMBL1151344, “Potential anticancer agents. XVI. Isolation of bicyclofarnesane sesquiterpenoids from Capsicodendron dinisii” (1980).
≈ marks a conversion by molar mass, not a printed value. Calls of active or inactive are those of the source. The rule behind the calls is not given here.

Experiments:
P388 [1] = test: Cytotoxicity against mouse P388 cells; type: functional
9KB = test: Cytotoxicity against human 9KB cells; type: functional, cell-based
P388 [2] = test: In vivo cytotoxicity against mouse P388 cells; type: functional, organism-based
[3] = Cytotoxicity against human 9KB5 cells; type: functional; settings: read-out: ED50 (the source's name)

Row | Compound | Activity (P388 [1]) | Activity (9KB) | Activity (P388 [2]) | EC50 [3] | EC50 (P388 [1]; read-out: ED50 (the source's name))
1 | CC(=O)O[C@@H]1CC2=C(C(=O)OC2)[C@@]2(C)CCCC(C)(C)[C@H]12 | inactive | inactive | inactive |  | 
2 | CC(=O)O[C@@H]1C=C2C(=O)OC[C@]2(O)[C@@]2(C)CCCC(C)(C)[C@H]12 [CINNAMOSMOLIDE] | inactive |  | inactive | 1.2 µg/mL (≈ 3.89 µM) | 
3 | CC(=O)O[C@@H]1[C@@H](O)C2=C(C(=O)OC2)[C@@]2(C)CCCC(C)(C)[C@H]12 | inactive | inactive | inactive |  | 
4 | CC1(C)CCC[C@]2(C)C3=C(COC3=O)[C@H](O)C[C@@H]12 | inactive | inactive | inactive |  | 
5 | CC(=O)O[C@@H]1C=C(C=O)[C@](O)(C=O)[C@@]2(C)CCCC(C)(C)[C@H]12 [CINNAMODIAL] |  |  | inactive |  | 2.2 µg/mL (≈ 7.13 µM)
